# Assay results as given in PMC7181426 (Clinical Drug Investigation, 2020).
# Where “and” joins values, the source holds several entries; their conditions need not be identical. Equal entries are not always repeated.
# What was measured:
# Assay type in all cases: in vivo, human
# [1] = Single-dose pharmacokinetics; settings: for CL/F, Mean (SD) / Aelast%, Mean (SD) / Aelast, Mean (SD): fasted; for Aelast%, Mean (SD) / Aelast, Mean (SD): urine
# [2] = Multiple-dose; settings: for AUC: AUC12, Mean (SD); for Cmax: Mean (SD); for Tmax: Median; for Ae12%, Mean (SD) / Ae12, Mean (SD): urine
# [3] = test system: STAT5 phosphorylation; assay: Inhibition of STAT5 phosphorylation in IL-2-stimulated CD3-positive lymphocytes; settings: single doses 20–200 mg, Japanese and Caucasian
# [4] = Caucasian, single oral dose 20 mg
# [5] = Caucasian, single oral dose 60 mg
# [6] = Caucasian, single oral dose 200 mg
# [7] = Japanese, single oral dose 20 mg
# [8] = Japanese, single oral dose 60 mg
# [9] = Japanese, single oral dose 200 mg
# [10] = male, human, plasma, oral, 10 mg, Japanese, 10 mg bid, Day 1
# [11] = male, human, plasma, oral, 10 mg, Japanese, 10 mg bid, Day 7
# [12] = male, human, plasma, oral, 30 mg, Japanese, 30 mg bid, Day 1
# [13] = male, human, plasma, oral, 30 mg, Japanese, 30 mg bid, Day 7
# [14] = male, human, plasma, oral, 100 mg, Japanese, 100 mg bid, Day 1
# [15] = male, human, plasma, oral, 100 mg, Japanese, 100 mg bid, Day 7
structure (smiles),measurement,setting,value
"NC(=O)c1cnc2[nH]ccc2c1N[C@@H]1[C@@H]2CC3C[C@H]1C[C@@](O)(C3)C2 [peficitinib, Peficitinib]","CL/F, Mean (SD)",[1]; [4],108.5 (30.0) L/h
same,"CL/F, Mean (SD)",[1]; [5],117.8 (23.6) L/h
same,"CL/F, Mean (SD)",[1]; [6],133.1 (15.0) L/h
same,"CL/F, Mean (SD)",[1]; [7],78.9 (13.5) L/h
same,"CL/F, Mean (SD)",[1]; [8],79.8 (19.2) L/h
same,"CL/F, Mean (SD)",[1]; [9],79.8 (8.2) L/h
same,Tmax,"[1]; male, human, plasma, oral, median tmax, range, single-dose administration, both Japanese and Caucasian subjects",1 to 2 h
same,"geometric mean ratio for dose-normalized AUCinf, higher in Japanese versus Caucasian subjects","[1]; single doses 20, 60, 200 mg",33.8–66.4%
same,"geometric mean ratio for dose-normalized Cmax, higher in Japanese versus Caucasian subjects","[1]; single doses 20, 60, 200 mg",45.7–98.8%
same,AUCinf higher in Japanese subjects compared with Caucasian subjects,[1]; single doses 20 to 200 mg,49%
same,Cmax higher in Japanese subjects compared with Caucasian subjects,[1]; single doses 20 to 200 mg,70%
same,Dose proportionality of Cmax and AUCinf,"[1]; single doses, dose range of 20–200 mg",demonstrated
same,"Aelast%, Mean (SD)",[1]; [4],14.2 %dose and 14.2 (3.6) %dose
same,"Aelast, Mean (SD)",[1]; [4],2.9 (0.7) mg
same,"Aelast%, Mean (SD)",[1]; [5],10.6 (3.6) %dose
same,"Aelast, Mean (SD)",[1]; [5],6.4 (2.2) mg
same,"Aelast%, Mean (SD)",[1]; [6],9.9 %dose and 9.9 (1.2) %dose
same,"Aelast, Mean (SD)",[1]; [6],19.8 (2.4) mg
same,"Aelast%, Mean (SD)",[1]; [7],16.8 %dose and 16.8 (4.1) %dose
same,"Aelast, Mean (SD)",[1]; [7],3.4 (0.8) mg
same,"Aelast%, Mean (SD)",[1]; [8],14.8 (2.8) %dose
same,"Aelast, Mean (SD)",[1]; [8],8.9 (1.7) mg
same,"Aelast%, Mean (SD)",[1]; [9],12.5 %dose and 12.5 (2.7) %dose
same,"Aelast, Mean (SD)",[1]; [9],25.1 (5.4) mg
same,"CL/F, Mean (SD)","[2]; Japanese, 10 mg bid, Day 1",87.7 (23.6) L/h
same,"CL/F, Mean (SD)","[2]; Japanese, 10 mg bid, Day 7",71.0 (13.6) L/h
same,"CL/F, Mean (SD)","[2]; Japanese, 30 mg bid, Day 1",83.3 (14.6) L/h
same,"CL/F, Mean (SD)","[2]; Japanese, 30 mg bid, Day 7",69.6 (13.5) L/h
same,"CL/F, Mean (SD)","[2]; Japanese, 100 mg bid, Day 1",71.2 (8.7) L/h
same,"CL/F, Mean (SD)","[2]; Japanese, 100 mg bid, Day 7",55.7 (9.3) L/h
same,AUC12 on day 7 higher than AUC12 after the first dose,"[2]; Japanese, 10–100 mg bid",25–37%
same,Cmax on day 7 higher than Cmax after the first dose,"[2]; Japanese, 10–100 mg bid",13–28%
same,Steady-state plasma concentrations achieved by,"[2]; Japanese, twice-daily dosing, visual prediction",≤ 3 days
same,half-life at 7 day,"[2]; male, human, plasma, oral",360 to 444 min
same,half-life,"[2]; male, human, plasma, oral, 10 mg",360 min
same,AUC,[2]; [10],114 ng·h/mL
same,AUC,[2]; [11],145 ng·h/mL
same,Cmax,[2]; [10],28.5 ng/mL
same,Cmax,[2]; [11],36.4 ng/mL
same,Tmax,[2]; [10],1.5 h
same,Tmax,[2]; [11],2.5 h
same,half-life,"[2]; male, human, plasma, oral, 30 mg",366 min
same,AUC,[2]; [12],354 ng·h/mL
same,AUC,[2]; [13],444 ng·h/mL
same,Cmax,[2]; [12],93.5 ng/mL
same,Cmax,[2]; [13],106 ng/mL
same,Tmax,[2]; [12],2 h
same,Tmax,[2]; [13],2 h
same,half-life,"[2]; male, human, plasma, oral, 100 mg",444 min
same,AUC,[2]; [14],1340 ng·h/mL
same,AUC,[2]; [15],1830 ng·h/mL
same,Cmax,[2]; [14],383 ng/mL
same,Cmax,[2]; [15],483 ng/mL
same,Tmax,[2]; [14],2 h
same,Tmax,[2]; [15],2 h
same,"Ae12%, Mean (SD)","[2]; Japanese, 10 mg bid, Day 1",14.9 (4.4) %dose
same,"Ae12, Mean (SD)","[2]; Japanese, 10 mg bid, Day 1",1.5 (0.4) mg
same,"Ae12%, Mean (SD)","[2]; Japanese, 10 mg bid, Day 7",32.0 (3.4) %dose
same,"Ae12, Mean (SD)","[2]; Japanese, 10 mg bid, Day 7",3.2 (0.3) mg
same,"Ae12%, Mean (SD)","[2]; Japanese, 30 mg bid, Day 1",15.6 (4.0) %dose
same,"Ae12, Mean (SD)","[2]; Japanese, 30 mg bid, Day 1",4.7 (1.2) mg
same,"Ae12%, Mean (SD)","[2]; Japanese, 30 mg bid, Day 7",26.4 %dose and 26.4 (4.2) %dose
same,"Ae12, Mean (SD)","[2]; Japanese, 30 mg bid, Day 7",7.9 (1.3) mg
same,"Ae12%, Mean (SD)","[2]; Japanese, 100 mg bid, Day 1",19.2 (2.7) %dose
same,"Ae12, Mean (SD)","[2]; Japanese, 100 mg bid, Day 1",19.2 (2.7) mg
same,"Ae12%, Mean (SD)","[2]; Japanese, 100 mg bid, Day 7",37.7 %dose and 37.7 (9.8) %dose
same,"Ae12, Mean (SD)","[2]; Japanese, 100 mg bid, Day 7",37.7 (9.8) mg
same,"Mean peak inhibition of STAT5 phosphorylation, dose dependence",[3],increased with increasing single doses of peficitinib
